Test results reported in PubChem BioAssay AID256 (DTP/NCI, 2004).
Where “and” joins values, the source holds several entries; their conditions need not be identical. Equal values may be shown once. Inconclusive results and toxic doses are left out. How the source made its calls: active means survival T/C of 150% or more; inactive means T/C below 125% in these data.

System: CD2F1 mice, L1210 leukemia ip, survival T/C
Experiment: NCI In Vivo Anticancer Drug Screen. Data for tumor model L1210 Leukemia (intraperitoneal) in CD2F1 (CDF1) mice
Conditions: endpoint: mean survival time, higher = longer survival
In short: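 Tumor-bearing mice (transplanted tumor) were split into treated and vehicle control groups, and the measured endpoint of each treated group was divided by that of its vehicle controls.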

[1] = dose: 100.0 mg/kg/injection, schedule: Q01DX009 (ip), vehicle: saline with Tween-80
[2] = dose: 200.0 mg/kg/injection, schedule: Q01DX009 (ip), vehicle: saline with Tween-80
[3] = dose: 400.0 mg/kg/injection, schedule: Q01DX009 (ip), vehicle: saline with Tween-80
[4] = dose: 100.0 mg/kg/injection, schedule: Q04DX003 (ip), vehicle: saline with Tween-80
[5] = dose: 200.0 mg/kg/injection, schedule: Q04DX003 (ip), vehicle: saline with Tween-80
[6] = dose: 400.0 mg/kg/injection, schedule: Q04DX003 (ip), vehicle: saline with Tween-80
[7] = dose: 12.5 mg/kg/injection, schedule: Q04DX003 (ip), vehicle: saline
[8] = dose: 100.0 mg/kg/injection, schedule: Q01DX001 (ip), vehicle: Klucel (hydroxypropylcellulose) (HPC)
[9] = dose: 100.0 mg/kg/injection, schedule: Q04DX002 (ip), vehicle: saline with Tween-80
[10] = dose: 200.0 mg/kg/injection, schedule: Q04DX002 (ip), vehicle: saline with Tween-80
[11] = dose: 400.0 mg/kg/injection, schedule: Q04DX002 (ip), vehicle: saline with Tween-80
[12] = dose: 25.0 mg/kg/injection, schedule: Q04DX003 (ip), vehicle: saline with Tween-80
[13] = dose: 50.0 mg/kg/injection, schedule: Q01DX009 (ip), vehicle: saline with Tween-80
[14] = dose: 50.0 mg/kg/injection, schedule: Q04DX003 (ip), vehicle: saline with Tween-80
[15] = dose: 25.0 mg/kg/injection, schedule: Q04DX002 (ip), vehicle: saline with Tween-80

Measured: T/C

O=C(Oc1c(Cl)c(Cl)c(Cl)c(Cl)c1Cl)c1ccc([N+](=O)[O-])cc1
inactive: [1] 101 % of control | [2] 97 % of control | [3] 95 % of control

CN(CCl)S(=O)(=O)c1ccccc1
inactive: [1] 100 % of control | [4] 112 % of control | [2] 104 % of control | [5] 101 % of control | [3] 102 % of control | [6] 100 % of control

[Cl][Pt+2][Cl].[NH-]CC([NH-])CN
inactive: dose: 0.39 mg/kg/injection, schedule: Q04DX003 (ip), vehicle: saline 89 % of control | dose: 0.78 mg/kg/injection, schedule: Q04DX003 (ip), vehicle: saline 97 % of control | dose: 1.56 mg/kg/injection, schedule: Q04DX003 (ip), vehicle: saline 103 % of control | dose: 3.12 mg/kg/injection, schedule: Q04DX003 (ip), vehicle: saline 103 % of control | dose: 6.25 mg/kg/injection, schedule: Q04DX003 (ip), vehicle: saline 111 % of control | [7] 109 % of control

S=C1NCc2ccccc2N1
inactive: dose: 25.0 mg/kg/injection, schedule: Q01DX001 (ip), vehicle: Klucel (hydroxypropylcellulose) (HPC) 101 % of control | dose: 50.0 mg/kg/injection, schedule: Q01DX001 (ip), vehicle: Klucel (hydroxypropylcellulose) (HPC) 101 % of control | [8] 112 % of control

CC1(C)CCSC(/C=C/c2ccccc2)=N1
inactive: dose: 100.0 mg/kg/injection, schedule: Q01DX009 (ip), vehicle: other 101 % of control | dose: 200.0 mg/kg/injection, schedule: Q01DX009 (ip), vehicle: other 117 % of control | dose: 400.0 mg/kg/injection, schedule: Q01DX009 (ip), vehicle: other 109 % of control

O=C(Nc1ccccc1)OC1CCCCC1
inactive: [4] 101 % of control | [5] 100 % of control | [6] 97 % of control

O=C(O)C1C(=O)CC2(O)c3ccccc3-c3ccccc3C12 (stereo unspecified)
inactive: [8] 98 % of control | [9] 96 % of control | dose: 200.0 mg/kg/injection, schedule: Q01DX001 (ip), vehicle: Klucel (hydroxypropylcellulose) (HPC) 94 % of control | [10] 93 % of control | dose: 400.0 mg/kg/injection, schedule: Q01DX001 (ip), vehicle: Klucel (hydroxypropylcellulose) (HPC) 94 % of control | [11] 93 % of control

CCOC(=O)c1ccc(NC(=O)Nc2ccc(Nc3ccccc3)cc2)cc1
inactive: [12] 96 % of control | [13] 96 % of control and 102 % of control | [14] 91 % of control | dose: 100.0 mg/kg/injection, schedule: Q01DX001 (ip), vehicle: saline with Tween-80 100 % of control | [1] 96 % of control and 102 % of control | [9] 86 % of control and 97 % of control | [4] 92 % of control | dose: 200.0 mg/kg/injection, schedule: Q01DX001 (ip), vehicle: saline with Tween-80 94 % of control | [2] 95 % of control and 98 % of control | [10] 87 % of control and 91 % of control | dose: 400.0 mg/kg/injection, schedule: Q01DX001 (ip), vehicle: saline with Tween-80 103 % of control | [11] 87 % of control

O=c1cc(C(F)(F)F)[nH]c2ccc(Br)cc12
inactive: dose: 12.5 mg/kg/injection, schedule: Q04DX003 (ip), vehicle: saline with Tween-80 97 % of control | [12] 95 % of control | [14] 97 % of control

CCCC[P+](c1ccccc1)(c1ccccc1)c1ccccc1
inactive: dose: 5.0 mg/kg/injection, schedule: Q01DX009 (ip), vehicle: saline sonified 103 % of control | dose: 5.0 mg/kg/injection, schedule: Q04DX003 (ip), vehicle: saline with Tween-80 97 % of control | dose: 10.0 mg/kg/injection, schedule: Q01DX009 (ip), vehicle: saline sonified 110 % of control | dose: 10.0 mg/kg/injection, schedule: Q04DX003 (ip), vehicle: saline with Tween-80 95 % of control | dose: 20.0 mg/kg/injection, schedule: Q01DX009 (ip), vehicle: saline sonified 120 % of control | dose: 20.0 mg/kg/injection, schedule: Q04DX003 (ip), vehicle: saline with Tween-80 98 % of control

OCc1ccc(O)cc1
inactive: dose: 100.0 mg/kg/injection, schedule: Q04DX003 (ip), vehicle: other 100 % of control | dose: 200.0 mg/kg/injection, schedule: Q04DX003 (ip), vehicle: other 95 % of control | dose: 400.0 mg/kg/injection, schedule: Q04DX003 (ip), vehicle: other 94 % of control

O=C1C(=O)c2ccccc2-c2ccccc21
inactive: [13] 98 % of control | [1] 102 % of control

O=C(Cl)c1ccccc1Sc1ccccc1
inactive: [4] 87 % of control

C/C(=N\O)c1ccc2[nH]c(C)cc(=O)c2c1
inactive: dose: 37.5 mg/kg/injection, schedule: Q01DX009 (ip), vehicle: saline 97 % of control | dose: 75.0 mg/kg/injection, schedule: Q01DX009 (ip), vehicle: saline 97 % of control | dose: 75.0 mg/kg/injection, schedule: Q04DX003 (ip), vehicle: saline 95 % of control | dose: 150.0 mg/kg/injection, schedule: Q01DX009 (ip), vehicle: saline 92 % of control | dose: 150.0 mg/kg/injection, schedule: Q04DX003 (ip), vehicle: saline 95 % of control | dose: 300.0 mg/kg/injection, schedule: Q04DX003 (ip), vehicle: saline 93 % of control

CC(C)(C)/[N+]([O-])=C/Cc1ccccc1
inactive: [15] 97 % of control | dose: 50.0 mg/kg/injection, schedule: Q04DX002 (ip), vehicle: saline with Tween-80 110 % of control | [9] 110 % of control

COc1ccc(OC)c(CC(C(C)=O)C(C)=O)c1
inactive: dose: 12.5 mg/kg/injection, schedule: Q01DX009 (ip), vehicle: water 100 % of control | dose: 25.0 mg/kg/injection, schedule: Q01DX009 (ip), vehicle: water 96 % of control | dose: 50.0 mg/kg/injection, schedule: Q01DX009 (ip), vehicle: water 100 % of control | dose: 100.0 mg/kg/injection, schedule: Q01DX009 (ip), vehicle: water 98 % of control | dose: 200.0 mg/kg/injection, schedule: Q01DX009 (ip), vehicle: water 95 % of control

Brc1ccc(C[N+]23CCN(CC2)CC3)cc1
inactive: [7] 98 % of control and 111 % of control | dose: 25.0 mg/kg/injection, schedule: Q04DX003 (ip), vehicle: saline 93 % of control and 100 % of control | dose: 50.0 mg/kg/injection, schedule: Q04DX003 (ip), vehicle: saline 95 % of control and 103 % of control

O=C(O)/C=C/c1ccc(Cl)cc1Cl
inactive: [4] 95 % of control | [5] 95 % of control | [6] 86 % of control

NCC1OC(CO)C(O)C1O (stereo unspecified)
inactive: dose: 100.0 mg/kg/injection, schedule: Q04DX003 (ip), vehicle: saline 91 % of control | dose: 200.0 mg/kg/injection, schedule: Q04DX003 (ip), vehicle: saline 100 % of control | dose: 400.0 mg/kg/injection, schedule: Q04DX003 (ip), vehicle: saline 104 % of control

COC(=O)c1cccc(OC)c1OC
inactive: [1] 101 % of control | [4] 108 % of control | [2] 96 % of control | [5] 98 % of control | [3] 98 % of control | [6] 100 % of control

COc1ccc(C(=O)c2no[n+]([O-])c2C(=O)c2ccc(OC)cc2)cc1
inactive: dose: 12.5 mg/kg/injection, schedule: Q01DX009 (ip), vehicle: saline with Tween-80 100 % of control | dose: 25.0 mg/kg/injection, schedule: Q01DX009 (ip), vehicle: saline with Tween-80 97 % of control | [13] 101 % of control | [1] 97 % of control and 98 % of control | [2] 98 % of control and 102 % of control | [3] 97 % of control and 110 % of control

COCC(=O)C(C(C)=O)C(c1ccc2c(c1)OCO2)C(C(C)=O)C(=O)COC (stereo unspecified)
inactive: [4] 96 % of control | [5] 101 % of control | [6] 96 % of control

O=c1c2ccccc2ncn1CCc1ccncc1
inactive: dose: 100.0 mg/kg/injection, schedule: Q01DX001 (ip), vehicle: saline 104 % of control | dose: 200.0 mg/kg/injection, schedule: Q01DX001 (ip), vehicle: saline 101 % of control | dose: 400.0 mg/kg/injection, schedule: Q01DX001 (ip), vehicle: saline 103 % of control

NCC1C2CCC(C2)C1CCCNCCCC1C2CCC(C2)C1CN (stereo unspecified)
inactive: dose: 6.25 mg/kg/injection, schedule: Q04DX002 (ip), vehicle: saline with Tween-80 98 % of control | dose: 12.5 mg/kg/injection, schedule: Q04DX002 (ip), vehicle: saline with Tween-80 107 % of control | [15] 114 % of control
